Data on five substances can be found in patent US20250084128A1, “ANTIVIRAL […]-STAPLED SARS-CoV-2 PEPTIDE-C[…] USES THEREOF” (priority 2021, published 2025).

Entries after “also recorded” stand apart in the source; their conditions may differ.

Holding throughout (assay type): cell-based
One assay relates to live SARS-CoV-2 virus.
Assay [1] relates to GFP-expressing SARS-CoV-1 (Urbani) pseudovirus.
Assay [2] concerns pseudotyped SARS-CoV-2 virus.

“DISGINASVVNIQKEI8RLNEVAXNLNESLIDLQELGK [SEQ ID NO: 13]”: in the assay with live SARS-CoV-2 virus, the antiviral activity result is reported as “consistent antiviral activity”; the “antiviral activity, i, i+7 staple scan” value is “potent anti-viral activity; also recorded: among the most potent antiviral activity; also recorded: uniquely potent”; the differential antiviral activity entry is on record as “moderate activity”. The antiviral activity entry in assay [1] is recorded as “consistent antiviral activity”. For the same substance, in assay [2], the antiviral activity result is given as “consistent antiviral activity”.

Take “DISGINASVVNIQKEID8LNEVAKXLNESLIDLQELGK [SEQ ID NO: 14]”: the differential antiviral activity result with live SARS-CoV-2 virus is on record as “little to no activity”.

For the substance “DISGINASVVNIQKEIDRL8EVAKNLXESLIDLQELGK [SEQ ID NO: 16]”, the differential antiviral activity result with live SARS-CoV-2 virus is “moderate activity”.

For the substance “DISGINASVVNIQK8IDRLNEXAKNLNESLIDLQELGK [SEQ ID NO: 11]”, the differential antiviral activity entry in the assay with live SARS-CoV-2 virus is recorded as “little to no activity”.

Regarding “DISGINASVVNIQKEIDR8NEVAKNXNESLIDLQELGK [SEQ ID NO: 15]”, the differential antiviral activity entry with live SARS-CoV-2 virus was “little to no activity”.
